Reference: patent US7399775B2, “β-amyloid protein production/secretion inhibitor” (Daiichi Pharmaceutical Co., Ltd., priority 2001, dated 2008)

Experiments:
[1] = tested on: β-amyloid protein (Aβ) production/secretion in E35 cells (H4 cells transfected with APP751); assay: Cell-based assay for inhibition of production or secretion of β-amyloid protein (sandwich ELISA of Aβ in culture medium); parameters: species or system human; details: Homo sapiens, 24 h, 24 h with compound, Aβ in medium by sandwich ELISA, read-out: Activity (EC50 class, inhibition of Aβ secreted in culture medium)
Experimental: Cell-Based Assay for Screening of a Compound Which Inhibits Production or Secretion of β-Amyloid Protein
E35 cells which were established by transfecting APP751 gene which is a wild type human β-amyloid protein precursor into human glioma cells (H4 cells), were used to analyze inhibitory activity of a compound against β-amyloid production. The amount of β protein (Aβ) secreted in a culture medium was measured by the sandwich enzyme-linked imunosorbent assay.
E35 cells were seeded in Dulbecco's Modified Eagle's Medium containing 10% inactivated fetal bovine serum on 96-well plates and cultured in humidified air and 5% CO2 at 37° C. in a CO2 incubator. Twenty-four hours after seeding of the cells, a test compound dissolved in DMSO was added to the medium. The DMSO solution of the compound was prepared so as to give the final concentration of DMSO in the medium 0.05%. The cells were cultured for additional twenty-four hours, and then the cultured medium was collected. The medium collected was applied to a 96-well ELISA plate on which a monoclonal antibody 25-1, which recognized Aβ25-35, was immobilized, followed by the incubation at 4° C. for 16 to 20 hours. After washing with a phosphate buffer (pH 7.4), a biotinylated monoclonal antibody MA32-40, which recognizes Aβ1-8, was added to the plate, and the plate was incubated at 4° C. for 2 hours. Then alkaline phosphatase-conjugated streptavidin was added to the plate. Alkaline phosphatase activity was measured by a […] assay using BlouPhos (manufactured by KPL) as a substrate. An amount of Aβ in the medium was calculated using a calibration curve separately created. EC50 of the test compound was presented as the concentration that gives 50% inhibitory activity compared to the control cells which were not treated with the compound.

An EC50 [1] of at most 50 nM and a melting point of 146 to 148 °C were found for `O=S(=O)(c1ccc(Cl)cc1)C(c1cc(F)ccc1F)c1cc(N2CCC(O)CC2)ncc1Cl` (centres unmarked) [Example 404, 5-Chloro-4-[(4-chlorophenylsulfonyl)-(2,5-difluorophenyl)methyl]-2-(4′-hydroxypiperidin-1′-yl)pyridine] in this work.
